# Data as given in patent US20230049952A1, “METHODS AND COMPOUNDS FOR RESTORING MUTANT P53 FUNCTION” (PMV Pharmaceuticals, Inc., priority 2020, published 2023).
# Read-outs that look alike come from different tables or passages of the source.
# Columns and labels:
# BCRP [1] = target: T1, BCRP (Homo sapiens, UniProt Q9UNQ0); assay: BCRP substrate assessment, BCRP-MDCK monolayers; type: in vitro ADME
# T1 sequence (Q9UNQ0 1-655): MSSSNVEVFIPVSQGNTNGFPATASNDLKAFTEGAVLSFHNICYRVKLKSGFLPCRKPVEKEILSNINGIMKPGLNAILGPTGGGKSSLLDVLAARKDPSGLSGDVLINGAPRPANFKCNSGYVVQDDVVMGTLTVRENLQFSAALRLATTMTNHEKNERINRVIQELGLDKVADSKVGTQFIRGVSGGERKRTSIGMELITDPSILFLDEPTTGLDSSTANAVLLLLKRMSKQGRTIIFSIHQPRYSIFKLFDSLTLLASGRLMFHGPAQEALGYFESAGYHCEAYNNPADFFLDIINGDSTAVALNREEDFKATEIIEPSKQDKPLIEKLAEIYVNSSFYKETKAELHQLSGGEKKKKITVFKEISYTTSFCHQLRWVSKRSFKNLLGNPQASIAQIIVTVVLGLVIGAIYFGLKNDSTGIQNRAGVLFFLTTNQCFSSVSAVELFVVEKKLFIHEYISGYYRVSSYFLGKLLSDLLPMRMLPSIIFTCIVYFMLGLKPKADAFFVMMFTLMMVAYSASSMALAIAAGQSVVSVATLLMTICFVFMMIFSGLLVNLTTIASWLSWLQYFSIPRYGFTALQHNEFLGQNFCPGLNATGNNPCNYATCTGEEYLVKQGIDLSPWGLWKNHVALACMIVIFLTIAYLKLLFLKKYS
# Procedure: (§1) BCRP-MDCK cell monolayers were prepared at Absorption Systems. […] Each determination was performed in duplicate.
# BCRP [2] = target: T1, BCRP; assay: BCRP substrate assessment, Caco-2 monolayers; type: in vitro ADME; set-up: host or cells: Caco-2 (clone C2BBe1)
# BCRP [3] = target: T1, BCRP; assay: in vitro
# BCRP [4] = assay: cell batch quality control, BCRP-MDCK monolayers; type: in vitro ADME; details: dog; BCRP-MDCK cell batch QC; passage 23
# Procedure: as §1
# [5] = metabolic stability in cryopreserved hepatocytes; type: in vitro ADME, rat; details: Rat cryopreserved hepatocytes
# Procedure: (§2) Mixed-gender human cryopreserved hepatocytes, male Sprague-Dawley rat cryopreserved hepatocytes, male CD-1 mouse cryopreserved hepatocytes, male beagle dog cryopreserved hepatocytes, and male cynomolgus monkey cryopreserved hepatocytes were used for the study. The hepatocytes were thawed, pooled into Krebs Henseleit buffer (KHB, pH 7.4), and kept on ice prior to the experiments. […] Each experiment was performed in triplicate. The final DMSO content in the incubation mixture was ≤0.1%. […] Positive controls, testosterone (1 μM) and 7-hydroxycoumarin (7-HC) (100 μM), were performed in parallel to confirm the activity of the hepatocytes. […] Aliquots of testosterone were withdrawn (n=1) at 0, 5, 15, 30, 60, and 120 minutes. Aliquots of 7-HC were withdrawn (n=1) at 0 and 15 minutes. The reaction was immediately terminated by adding three volumes of ice-cold MeCN containing IS. The samples were then mixed and spun by centrifuge to precipitate proteins. An aliquot of the supernatant was then diluted with water. Calibration standards for the analysis of 7-HC metabolites were prepared in matched matrix. […] All samples were analyzed by LC-MS/MS. The peak area response ratio (PARR) vs. IS was compared to the PARR at time 0 to determine the percent remaining at each time point. Half-lives and clearance values were calculated using GraphPad software, fitting to a single-phase exponential decay equation.
# (§3) Mixed-gender human cryopreserved hepatocytes, male Sprague-Dawley rat cryopreserved hepatocytes, male CD-1 mouse cryopreserved hepatocytes, male beagle dog cryopreserved hepatocytes, and male cynomolgus monkey cryopreserved hepatocytes were thawed and pooled into KHB buffer (pH 7.4) and kept on ice prior to the experiments. […] Each experiment was performed in triplicate. The final DMSO content in the incubation mixture was ≤0.1%.
# (§4) Positive controls, testosterone (1 μM) and 7-hydroxycoumarin (7-HC) (100 μM), were performed in parallel to confirm the activity of the hepatocytes. […] Aliquots of testosterone were withdrawn (n=1) at 0, 5, 15, 30, 60, and 120 minutes. Aliquots of 7-HC were withdrawn (n=1) at 0 and 15 minutes. The reaction was immediately terminated by adding three volumes of ice-cold MeCN containing IS. The samples were then mixed and spun by centrifuge to precipitate proteins. An aliquot of the supernatant was then diluted with water. Calibration standards for the analysis of 7-HC metabolites were prepared in matched matrix. […] All samples were analyzed by LC-MS/MS. Analytical conditions are outlined below. The peak area response ratio (PARR) vs. IS was compared to the PARR at time 0 to determine the percent remaining at each time point. Half-lives and clearance values were calculated using GraphPad software, fitting to a single-phase exponential decay equation.
# [6] = metabolic stability in cryopreserved hepatocytes; type: in vitro ADME, cynomolgus monkey; details: Monkey cryopreserved hepatocytes
# Procedure: as §2, §3, §4
# [7] = metabolic stability in cryopreserved hepatocytes; type: in vitro ADME, dog; details: Dog cryopreserved hepatocytes
# Procedure: Mixed-gender human cryopreserved hepatocytes, male Sprague-Dawley rat cryopreserved hepatocytes, male CD-1 mouse cryopreserved hepatocytes, male beagle dog cryopreserved hepatocytes, and male cynomolgus monkey cryopreserved hepatocytes were used for the study. The hepatocytes were thawed, pooled into Krebs Henseleit buffer (KHB, pH 7.4), and kept on ice prior to the experiments. […] Each experiment was performed in triplicate. The final DMSO content in the incubation mixture was ≤0.1%. […] Aliquots of testosterone were withdrawn (n=1) at 0, 5, 15, 30, 60, and 120 minutes. Aliquots of 7-HC were withdrawn (n=1) at 0 and 15 minutes. The reaction was immediately terminated by adding three volumes of ice-cold MeCN containing IS. The samples were then mixed and spun by centrifuge to precipitate proteins. An aliquot of the supernatant was then diluted with water. Calibration standards for the analysis of 7-HC metabolites were prepared in matched matrix. […] All samples were analyzed by LC-MS/MS. The peak area response ratio (PARR) vs. IS was compared to the PARR at time 0 to determine the percent remaining at each time point. Half-lives and clearance values were calculated using GraphPad software, fitting to a single-phase exponential decay equation.
# as §3
# Aliquots of testosterone were withdrawn (n=1) at 0, 5, 15, 30, 60, and 120 minutes. Aliquots of 7-HC were withdrawn (n=1) at 0 and 15 minutes. The reaction was immediately terminated by adding three volumes of ice-cold MeCN containing IS. The samples were then mixed and spun by centrifuge to precipitate proteins. An aliquot of the supernatant was then diluted with water. Calibration standards for the analysis of 7-HC metabolites were prepared in matched matrix. […] All samples were analyzed by LC-MS/MS. Analytical conditions are outlined below. The peak area response ratio (PARR) vs. IS was compared to the PARR at time 0 to determine the percent remaining at each time point. Half-lives and clearance values were calculated using GraphPad software, fitting to a single-phase exponential decay equation.
# [8] = metabolic stability in cryopreserved hepatocytes; type: in vitro ADME, human; details: both sexes, pH 7.4; Human cryopreserved hepatocytes; positive control 1 μM
# Procedure: as §2, §3, §4
# human hepatocytes = assay: metabolic stability in cryopreserved hepatocytes; type: in vitro ADME; details: Human cryopreserved hepatocytes; positive control, 1 μM
# Procedure: as §2, §3, §4
# [9] = metabolic stability in cryopreserved hepatocytes; type: in vitro ADME, mouse; details: Mouse cryopreserved hepatocytes
# Procedure: as §2, §3, §4
# [10] = male, beagle, pH 7.4, positive control 1 μM
# [11] = male, CD-1, pH 7.4, positive control 1 μM
compound,measurement,setting,value
"Nc1nc(Cl)nc2c1ncn2[C@H]1C[C@H](O)[C@@H](CO)O1 [Cladribine, cladribine]",BCRP Substrate Classification,"BCRP [1]; BCRP-MDCK, Cladribine",Positive
same,recovery at 120 min,"BCRP [1]; dog, pH 7.4, BCRP-MDCK, Cladribine, A-to-B",91.3%
same,Papp A→B at 120 min,"BCRP [1]; dog, pH 7.4, BCRP-MDCK, Cladribine, A-to-B, read-out: Papp AVG",0.211 ×10⁻⁶ cm/s
same,Papp A→B at 120 min,"BCRP [1]; dog, pH 7.4, BCRP-MDCK, Cladribine, A-to-B, read-out: Papp R1",0.142 ×10⁻⁶ cm/s
same,Papp A→B at 120 min,"BCRP [1]; dog, pH 7.4, BCRP-MDCK, Cladribine, A-to-B, read-out: Papp R2",0.28 ×10⁻⁶ cm/s
same,recovery at 120 min,"BCRP [1]; dog, pH 7.4, BCRP-MDCK, Cladribine, B-to-A",92.9%
same,Papp B→A at 120 min,"BCRP [1]; dog, pH 7.4, BCRP-MDCK, Cladribine, B-to-A, read-out: Papp AVG",17.6 ×10⁻⁶ cm/s
same,Papp B→A at 120 min,"BCRP [1]; dog, pH 7.4, BCRP-MDCK, Cladribine, B-to-A, read-out: Papp R1",15.6 ×10⁻⁶ cm/s
same,Papp B→A at 120 min,"BCRP [1]; dog, pH 7.4, BCRP-MDCK, Cladribine, B-to-A, read-out: Papp R2",19.6 ×10⁻⁶ cm/s
same,recovery at 120 min,"BCRP [1]; dog, pH 7.4, with Ko143 0.5 µM, BCRP-MDCK, Cladribine + 0.5 μM Ko143, A-to-B",93.5%
same,recovery at 120 min,"BCRP [1]; dog, pH 7.4, with Ko143 0.5 µM, BCRP-MDCK, Cladribine + 0.5 μM Ko143, B-to-A",107%
same,efflux ratio at 120 min,"BCRP [1]; dog, pH 7.4, BCRP-MDCK, Cladribine",83.3
same,BCRP Substrate Classification,"BCRP [2]; Caco-2, Cladribine",Positive
same,recovery at 120 min,"BCRP [2]; human, Caco-2, pH 7.4, Caco-2, Cladribine, A-to-B",80.5%
same,Papp A→B at 120 min,"BCRP [2]; human, Caco-2, pH 7.4, Caco-2, Cladribine, A-to-B, read-out: Papp AVG",0.58 ×10⁻⁶ cm/s
same,Papp A→B at 120 min,"BCRP [2]; human, Caco-2, pH 7.4, Caco-2, Cladribine, A-to-B, read-out: Papp R1",0.681 ×10⁻⁶ cm/s
same,Papp A→B at 120 min,"BCRP [2]; human, Caco-2, pH 7.4, Caco-2, Cladribine, A-to-B, read-out: Papp R2",0.478 ×10⁻⁶ cm/s
same,recovery at 120 min,"BCRP [2]; human, Caco-2, pH 7.4, Caco-2, Cladribine, B-to-A",85.6%
same,Papp B→A at 120 min,"BCRP [2]; human, Caco-2, pH 7.4, Caco-2, Cladribine, B-to-A, read-out: Papp AVG",18.5 ×10⁻⁶ cm/s
same,Papp B→A at 120 min,"BCRP [2]; human, Caco-2, pH 7.4, Caco-2, Cladribine, B-to-A, read-out: Papp R1",17.7 ×10⁻⁶ cm/s
same,Papp B→A at 120 min,"BCRP [2]; human, Caco-2, pH 7.4, Caco-2, Cladribine, B-to-A, read-out: Papp R2",19.3 ×10⁻⁶ cm/s
same,recovery at 120 min,"BCRP [2]; human, Caco-2, pH 7.4, with Ko143 0.5 µM, Caco-2, Cladribine + 0.5 μM Ko143, A-to-B",89.8%
same,recovery at 120 min,"BCRP [2]; human, Caco-2, pH 7.4, with Ko143 0.5 µM, Caco-2, Cladribine + 0.5 μM Ko143, B-to-A",87.7%
same,efflux ratio at 120 min,"BCRP [2]; human, pH 7.4, Caco-2, Cladribine",32
same,efflux ratio,"BCRP [3]; Caco-2, pH 7.4",32
same,recovery,"BCRP [3]; Caco-2, pH 7.4, % Recovery, IC50 determination, Caco-2, Cladribine alone, B-A",103%
same,Papp A→B,"BCRP [3]; Caco-2, pH 7.4, Papp AVG, Caco-2, Cladribine alone, A-to-B",0.58 ×10⁻⁶ cm/s
same,Papp B→A,"BCRP [3]; Caco-2, pH 7.4, Papp AVG, Caco-2, Cladribine alone, B-to-A",18.5 ×10⁻⁶ cm/s
same,Papp B→A,"BCRP [3]; Caco-2, pH 7.4, Papp AVG, IC50 determination, Caco-2, Cladribine alone, B-A",14.6 ×10⁻⁶ cm/s
same,Papp A→B,"BCRP [3]; Caco-2, pH 7.4, Papp R1, Caco-2, Cladribine alone, A-to-B",0.681 ×10⁻⁶ cm/s
same,Papp B→A,"BCRP [3]; Caco-2, pH 7.4, Papp R1, Caco-2, Cladribine alone, B-to-A",17.7 ×10⁻⁶ cm/s
same,Papp B→A,"BCRP [3]; Caco-2, pH 7.4, Papp R1, IC50 determination, Caco-2, Cladribine alone, B-A",17.8 ×10⁻⁶ cm/s
same,Papp A→B,"BCRP [3]; Caco-2, pH 7.4, Papp R2, Caco-2, Cladribine alone, A-to-B",0.478 ×10⁻⁶ cm/s
same,Papp B→A,"BCRP [3]; Caco-2, pH 7.4, Papp R2, Caco-2, Cladribine alone, B-to-A",19.3 ×10⁻⁶ cm/s
same,Papp B→A,"BCRP [3]; Caco-2, pH 7.4, Papp R2, IC50 determination, Caco-2, Cladribine alone, B-A",11.5 ×10⁻⁶ cm/s
same,recovery,"BCRP [3]; Caco-2, pH 7.4, Recovery (%), Caco-2, Cladribine alone, A-to-B",80.5%
same,recovery,"BCRP [3]; Caco-2, pH 7.4, Recovery (%), Caco-2, Cladribine alone, B-to-A",85.6%
same,Papp A→B,BCRP [4],0.136 ×10⁻⁶ cm/s
same,Papp B→A,BCRP [4],18.4 ×10⁻⁶ cm/s
same,efflux ratio,BCRP [4],135
C[C@]12CC[C@H]3[C@@H](CCC4=CC(=O)CC[C@@]43C)[C@@H]1CC[C@@H]2O [testosterone],CLint,"[5]; positive control, 1 μM",0.405 mL/min/10^6 cells
same,half-life,"[5]; positive control, 1 μM",1.14 min
same,hepatocyte CLint,"[5]; male, Sprague-Dawley, pH 7.4, positive control 1 μM",405 µL/min/1e6 cells
same,half-life,"[5]; male, Sprague-Dawley, pH 7.4, positive control 1 μM, read-out: Half-life",1.14 min
same,half-life,[6]; positive control 1 μM,3.08 min
same,CLint,"[6]; positive control, 1 μM",0.150 mL/min/10^6 cells
same,half-life,"[6]; positive control, 1 μM",3.08 min
same,hepatocyte CLint,"[6]; male, pH 7.4, positive control 1 μM",150 µL/min/1e6 cells
same,CLint,"[7]; positive control, 1 μM",0.0672 mL/min/10^6 cells
same,half-life,[7]; [10],6.88 min
same,hepatocyte CLint,[7]; [10],67.2 µL/min/1e6 cells
same,half-life,[8],4.28 min
same,hepatocyte CLint,[8],108 µL/min/1e6 cells
same,CLint,human hepatocytes,0.108 mL/min/10^6 cells
same,CLint,"[9]; positive control, 1 μM",0.181 mL/min/10^6 cells
same,half-life,[9]; [11],2.55 min
same,hepatocyte CLint,[9]; [11],181 µL/min/1e6 cells
